Data: PubChem BioAssay AID190 (DTP/NCI, 2004)
Toxic doses and inconclusive results are not listed. How the source made its calls: active means survival T/C of 150% or more; inactive means T/C below 125% in these data.

Test system: AKR/Lw mice, AKR lymphoma ip, median survival T/C
Assay: NCI In Vivo Anticancer Drug Screen. Data for tumor model Lymphoma AKR (Transplanted) (intraperitoneal) in AKR/Lw mice
Conditions: endpoint: median survival time, higher = longer survival
Experimental: The antitumor activity of compounds was measured in mice bearing transplantable tumors. Survival or tumor size were measured and the results are expressed as the measurement made in the treated group (T) divided by the measurement made in the vehicle treated control group (C). The tumor model used in this assay is Lymphoma AKR (Transplanted) (intraperitoneal) in AKR/Lw mice

Measured: T/C

N#CCCNc1ccc(NC(=O)C(F)(F)F)cc1
inactive: dose: 25.0 mg/kg/injection, schedule: Q01DX009 (ip), vehicle: Klucel (hydroxypropylcellulose) (HPC) 96 % of control | dose: 50.0 mg/kg/injection, schedule: Q01DX009 (ip), vehicle: Klucel (hydroxypropylcellulose) (HPC) 89 % of control | dose: 50.0 mg/kg/injection, schedule: Q04DX003 (ip), vehicle: other 90 % of control | dose: 100.0 mg/kg/injection, schedule: Q01DX001 (ip), vehicle: saline 103 % of control | dose: 100.0 mg/kg/injection, schedule: Q04DX003 (ip), vehicle: other 95 % of control | dose: 200.0 mg/kg/injection, schedule: Q01DX001 (ip), vehicle: saline 100 % of control | dose: 200.0 mg/kg/injection, schedule: Q04DX003 (ip), vehicle: other 95 % of control
